In the supplement of paper PMC11208160:

Test: recombinant barcode read abundance after kanamycin selection (control-corrected) (log10(CPM+1)); higher = more efficient recombination; sequences stand for … in AGTGCAGAGAAAATCGGCCAGTTTTCTCTGCCTGCAGTCCGCATGCCGT…AGATTTATGCAGCGGACTGCCTTTCTCCCAAAGTGATAAACCGGACAGTATCATGGACCGGTTTTCCCGGTAATCCGTATTTGCAAGGTTGGTTTCACT; site = the 11-nt target
Outline: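 Each value is log10(CPM+1). It describes recombination efficiency, taken as averaged, control-corrected counts per million of barcodes at recombinant junctions. The pooled E. coli library paired targets with IS621 bridge RNA target-binding loops, was co-electroporated with a donor plasmid, and was plated twice on chloramphenicol/ampicillin LB agar (control) and twice on chloramphenicol/ampicillin/kanamycin containing 0.1 mM IPTG.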
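Also: IS621 recombinase and bridge RNA in Escherichia coli cells.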

Sequence | recombinant barcode read abundance (log10)
GTAGTACCTTGGGTTCTAACCTGTTGCCT (site GTAGTATCTAG) | 0.545
GTAGTCCCTTGGGTTCTAACCTGTTGCCT (site GAAGTCTCTAG) | 0.118
GTAGTCCCTTGGGTTCTAACCTGTTGCCT (site GTAGTCCCTAG) | 2.06
GTAGTGTCTTGGGTTCTAACCTGTTGCTA (site CTAGTGTCTTA) | 1.61
GTAGTGTCTTGGGTTCTAACCTGTTGCTA (site GTAGTGTCTTA) | 2.37
GTATCAACTTGGGTTCTAACCTGTTGCCT (site GTATCAACTAG) | 0.35
GTATCAACTTGGGTTCTAACCTGTTGCCT (site GTATCACCTAG) | 0.0908
GTATCAACTTGGGTTCTAACCTGTTGCCT (site GTATCAGCTAG) | 0.0211
GTATCAACTTGGGTTCTAACCTGTTGCCT (site GTATCATCTAG) | 0
GTATCACCTTGGGTTCTAACCTGTTGCCT (site GTATCAACTAG) | 0.19
GTATCACCTTGGGTTCTAACCTGTTGCCT (site GTATCACCTAG) | 1.44
GTATCACCTTGGGTTCTAACCTGTTGCCT (site GTATCAGCTAG) | 0.187
GTATCACCTTGGGTTCTAACCTGTTGCCT (site GTATCATCTAG) | 0.0641
GTATGACCTTGGGTTCTAACCTGTTGCCT (site GTATGAACTAG) | 0.0455
GTATGACCTTGGGTTCTAACCTGTTGCCT (site GTATGACCTAG) | 1.86
GTATGACCTTGGGTTCTAACCTGTTGCCT (site GTATGAGCTAG) | 0.0609
GTATGACCTTGGGTTCTAACCTGTTGCCT (site GTATGATCTAG) | 0.217
GTATGAGCTTGGGTTCTAACCTGTTGCCT (site GTATGAACTAG) | 0.475
GTATGAGCTTGGGTTCTAACCTGTTGCCT (site GTATGACCTAG) | 0.0478
GTATGAGCTTGGGTTCTAACCTGTTGCCT (site GTATGAGCTAG) | 1.5
GTATGAGCTTGGGTTCTAACCTGTTGCCT (site GTATGATCTAG) | 0.135
GTATGCCCTTGGGTTCTAACCTGTTGCCT (site GTATGCCCTAG) | 1.38

Sequence | recombinant barcode read abundance (log10)
GTATGCCCTTGGGTTCTAACCTGTTGCCT (site GTGGGCCCTAG) | 0
GTATGGTCTTGGGTTCTAACCTGTTGCGT (site GTATCGTCTAG) | 0.0442
GTATGGTCTTGGGTTCTAACCTGTTGCGT (site GTATGGTCTAC) | 2.98
GTATGTACTTGGGTTCTAACCTGTTGCAT (site GTATGATCTAT) | 0.206
GTATGTACTTGGGTTCTAACCTGTTGCAT (site GTATGTACTAT) | 0.435
GTCAACTCTTGGGTTCTAACCTGTTGCCT (site GTAAACTCTAG) | 0.0267
GTCAACTCTTGGGTTCTAACCTGTTGCCT (site GTCAACTCTAG) | 2.06
GTCAACTCTTGGGTTCTAACCTGTTGCCT (site GTGAACTCTAG) | 0.00674
GTCAACTCTTGGGTTCTAACCTGTTGCCT (site GTTAACTCTAG) | 0.13
GTCAATCCTTGGGTTCTAACCTGTTGCGG (site CGACGAACTAG) | 0.138
GTCAATCCTTGGGTTCTAACCTGTTGCGG (site GTCAATCCTCC) | 1.25
GTCAATCCTTGGGTTCTAACCTGTTGCGT (site GCCACTCCTAC) | 0.0762
GTCAATCCTTGGGTTCTAACCTGTTGCGT (site GTCAATCCTAC) | 1.98
GTCACCTCTTGGGTTCTAACCTGTTGCCT (site GTCACCTCTAG) | 1.8
GTCACCTCTTGGGTTCTAACCTGTTGCCT (site GTCCCCTCTAG) | 0.0973
GTCACCTCTTGGGTTCTAACCTGTTGCCT (site GTCGCCTCTAG) | 0.0645
GTCACCTCTTGGGTTCTAACCTGTTGCCT (site GTCTCCTCTAG) | 0.105
GTCACTACTTGGGTTCTAACCTGTTGCGT (site GTAACTACTCC) | 0.182
GTCACTACTTGGGTTCTAACCTGTTGCGT (site GTCACTACTAC) | 0.517
GTCAGCCCTTGGGTTCTAACCTGTTGCGG (site GTCAGCCCTCC) | 2.53
GTCAGCCCTTGGGTTCTAACCTGTTGCGG (site GTTAGCCCTCC) | 0.365
GTCCCTCCTTGGGTTCTAACCTGTTGCGT (site GTCCCTCCTAA) | 0.0918

Sequence | recombinant barcode read abundance (log10)
GTCCCTCCTTGGGTTCTAACCTGTTGCGT (site GTCCCTCCTAC) | 2.74
GTCCCTCCTTGGGTTCTAACCTGTTGCGT (site GTCCCTCCTAG) | 0.156
GTCCCTCCTTGGGTTCTAACCTGTTGCGT (site GTCCCTCCTAT) | 1.34
GTCCTACCTTGGGTTCTAACCTGTTGCAA (site GTCCTAACTGT) | 0.42
GTCCTACCTTGGGTTCTAACCTGTTGCAA (site GTCCTACCTTT) | 1.45
GTCGAGCCTTGGGTTCTAACCTGTTGCCT (site GTCGAGCCTAG) | 2.12
GTCGAGCCTTGGGTTCTAACCTGTTGCCT (site GTTCAGCCTAG) | 0.157
GTCGAGTCTTGGGTTCTAACCTGTTGCCT (site GTCGACACTAG) | 0.186
GTCGAGTCTTGGGTTCTAACCTGTTGCCT (site GTCGAGTCTAG) | 1.61
GTCGCTACTTGGGTTCTAACCTGTTGCCG (site GTCACTACTCG) | 0
GTCGCTACTTGGGTTCTAACCTGTTGCCG (site GTCCCTACTCG) | 0.0655
GTCGCTACTTGGGTTCTAACCTGTTGCCG (site GTCGCTACTCG) | 0.95
GTCGCTACTTGGGTTCTAACCTGTTGCCG (site GTCTCTACTCG) | 1.35
GTCGCTACTTGGGTTCTAACCTGTTGCGG (site GTCGCTACTCC) | 0.785
GTCGCTACTTGGGTTCTAACCTGTTGCGG (site GTCTCTACTCC) | 0.667
GTCGGTCCTTGGGTTCTAACCTGTTGCAC (site GTCGGTCCTGT) | 2.49
GTCGGTCCTTGGGTTCTAACCTGTTGCAC (site TGAAACTCTCC) | 0.0122
GTCGTACCTTGGGTTCTAACCTGTTGCCT (site GTCATACCTAG) | 0.348
GTCGTACCTTGGGTTCTAACCTGTTGCCT (site GTCCTACCTAG) | 0.0361
GTCGTACCTTGGGTTCTAACCTGTTGCCT (site GTCGTACCTAG) | 0.704
GTCGTACCTTGGGTTCTAACCTGTTGCCT (site GTCTTACCTAG) | 0.221
GTCGTAGCTTGGGTTCTAACCTGTTGCTA (site GTCGAACCTTA) | 0.139

Sequence | recombinant barcode read abundance (log10)
GTCGTAGCTTGGGTTCTAACCTGTTGCTA (site GTCGTAGCTTA) | 0.353
GTCGTCGCTTGGGTTCTAACCTGTTGCCT (site GTCGTCACTAG) | 0.136
GTCGTCGCTTGGGTTCTAACCTGTTGCCT (site GTCGTCCCTAG) | 0.0726
GTCGTCGCTTGGGTTCTAACCTGTTGCCT (site GTCGTCGCTAG) | 0.376
GTCGTCGCTTGGGTTCTAACCTGTTGCCT (site GTCGTCTCTAG) | 0.0427
GTCTAAGCTTGGGTTCTAACCTGTTGCCG (site GTCTAAGCTCG) | 0.59
GTCTAAGCTTGGGTTCTAACCTGTTGCCG (site GTCTACGCTTG) | 0.0178
GTCTAAGCTTGGGTTCTAACCTGTTGCTT (site GTCTAAGCTAA) | 0.0172
GTCTAAGCTTGGGTTCTAACCTGTTGCTT (site GTCTATGCTAC) | 0.295
GTCTAATCTTGGGTTCTAACCTGTTGCAT (site ACAGGTCCTCG) | 0.0725
GTCTAATCTTGGGTTCTAACCTGTTGCAT (site GTCTAATCTAT) | 1.02
GTCTCGTCTTGGGTTCTAACCTGTTGCTT (site GTCTCGTCTAA) | 0.246
GTCTCGTCTTGGGTTCTAACCTGTTGCTT (site GTCTCTTCTTA) | 0.0559
GTCTGAGCTTGGGTTCTAACCTGTTGCCT (site GTCTAAGCTAG) | 0.241
GTCTGAGCTTGGGTTCTAACCTGTTGCCT (site GTCTGAGCTAG) | 0.355
GTCTTATCTTGGGTTCTAACCTGTTGCCT (site GTCTAATCTAG) | 0.0535
GTCTTATCTTGGGTTCTAACCTGTTGCCT (site GTCTCATCTAG) | 0.0374
GTCTTATCTTGGGTTCTAACCTGTTGCCT (site GTCTGATCTAG) | 0.24
GTCTTATCTTGGGTTCTAACCTGTTGCCT (site GTCTTATCTAG) | 1.14
GTCTTGACTTGGGTTCTAACCTGTTGCCA (site GTCTTAACTCG) | 0.0812
